Test results published in PubChem BioAssay AID1963969 (Molecular Pharmacology Branch, DTP, NCI, 2024).
“And” between values parts separate entries of the source, which are not always exact repeats. Identical values can stand only once. One block for each molecule: values may come before it.

Test system: 817829-284-R-J1-PDC multi-cell spheroid viability
Assay: Anticancer human tumor 817829-284-R-J1-PDC patient-derived colon adenocarcinoma cell line growth inhibition [PI3K]
Conditions: for viability, T/C: stronger effect = lower value
Excerpt: Combinatorial screen of targeted agents with the PI3K inhibitors inavolisib, alpelisib, duvelisib, and copanlisib in multi-cell type tumor spheroids
A high-throughput screen of multi-cell type tumor spheroids was designed to identify active combinations of targeted small molecules and PI3K pathway inhibitors. Complex spheroids include a stromal component modeled by human endothelial cells (HUVEC) and fibroblasts modeled by human mesenchymal stem cells (MSCs). The concentration ranges selected for each drug and investigational agent were based upon clinically achievable concentrations if the clinical Cmax of the agent was known.
Compounds. The drugs and investigational agents: inavolisib (NSC800729), alpelisib (NSC765974), duvelisib (NSC772469), copanlisib (NSC816437), ipatasertib (NSC767898), afuresertib (NSC778305), talazoparib (NSC767125), sapanisertib (NSC764658), selumetinib (NSC741078), tovorafenib (DAY101, NSC766906), vemurafenib (NSC761431), ravoxertinib (NSC781343), sotorasib (NSC818433), MRTX1133 (NSC 836407), abemaciclib (NSC 768073), palbociclib (NSC758247), venetoclax (NSC 766270), SY5609 (NSC837396), enzalutamide (NSC755605), and darolutamide (NSC825331), were obtained from the National Cancer Institute (NCI) Developmental Therapeutics Program Chemical Repository. The FDA-approved anticancer drug set is available from the NCI Developmental Therapeutics Program. […] The stock solutions were prepared in dimethyl sulfoxide (DMSO, Sigma-Aldrich, St. Louis, MO, cat. D2650) at 800-fold the tested concentration and stored at -70 degrees C prior to their use. All drugs and investigational agents were tested over a range starting from a high concentration at or near the clinical Cmax and decreasing in half-log increments. If the clinical Cmax for an agent had not been determined, the highest concentration tested was 10 microM.
Cell Culture. All cells were maintained in an incubator at 37 degrees C and 5% CO2 with 95% humidity. The PDC lines were cultured according to standard operating procedures established by the NCI PDMR (https://pdmr.cancer.gov/sops/default.htm). All PDCs were thawed and cultured in Matrigel-coated flasks prepared with a working solution of 1X Ham's F-12 nutrient mix, without supplementation (Invitrogen, Waltham, MA, cat. 11765054), 100 U/mL penicillin-streptomycin (Invitrogen, cat. 15140122), and 2.5% Matrigel (Corning Inc., Corning, NY, cat. 354248) for the first three passages. The 354836-022-R-J1-PDC, 475296-252-R-J1-PDC, and 997726-040-R-J2-PDC lines were cultured in 6A media, which includes advanced DMEM/F-12 (Thermo Fisher Scientific, cat. 12634028), 10 mM HEPES (Thermo Fisher Scientific, cat. 15630080), 1X GlutaMAX supplement (Thermo Fisher Scientific, cat. 35050061), 0.1 mg/mL primocin (InvivoGen, San Diego, CA, cat. ant-pm-2), 10% defined fetal bovine serum, heat inactivated (HyClone Laboratories Inc., Logan, UT, cat. SH30070.03HI), 50% L-WRN conditioned media (ATCC, cat. CRL-3276), 1.25 mM N-Acetyl-L-cysteine (Sigma-Aldrich, cat. A9165), 10 mM nicotinamide (Sigma-Aldrich, cat. N0636), 1X B-27 supplement (Thermo Fisher Scientific, cat. 17504044), 1X N-2 supplement (Thermo Fisher Scientific, cat. 17502048), and 10 microM Y-27632 dihydrochloride (Tocris Bioscience, Bristol, United Kingdom, cat. 1254). The 624824-186-R-J2-PDC line was cultured in 6C/Colon 1B media, which includes all 6A media components plus 50 ng/mL human EGF recombinant protein (Thermo Fisher Scientific, cat. PHG0311). […]
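Also: spheroids exposed to agents for seven days before readout.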
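For viability, T/C in this document: percent of vehicle DMSO control viability which is 100%.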

IC50 (curve of first compound, second compound 0.00316 µM): > 10 µM
IC50 (curve of first compound, second compound 0.01 µM): > 10 µM
IC50 (curve of first compound, second compound 0.0316 µM): > 10 µM
IC50 (curve of first compound, second compound 0.1 µM): 4.18 µM
IC50 (curve of first compound, second compound 0.316 µM): 3.37 µM
IC50 (curve of first compound, second compound 1 µM): < 0.0316 µM
SMILES: CNC(=O)c1ccc(N2C(=S)N(c3ccc(C#N)c(C(F)(F)F)c3)C(=O)C2(C)C)cc1F + CC(Nc1ccc2c(c1)OCCn1cc(N3C(=O)OCC3C(F)F)nc1-2)C(N)=O
viability, T/C (second compound 0.00316 µM, first compound 0.0316 µM): 57.7%
viability, T/C (second compound 0.00316 µM, first compound 0.1 µM): 88.8%
viability, T/C (second compound 0.00316 µM, first compound 0.316 µM): 109%
viability, T/C (second compound 0.00316 µM, first compound 1 µM): 75.6%
viability, T/C (second compound 0.00316 µM, first compound 3.16 µM): 61.9%
viability, T/C (second compound 0.00316 µM, first compound 10 µM): 50.9%
viability, T/C (second compound 0.01 µM, first compound 0.0316 µM): 86.1%
viability, T/C (second compound 0.01 µM, first compound 0.1 µM): 77.6%
viability, T/C (second compound 0.01 µM, first compound 0.316 µM): 89.1%
viability, T/C (second compound 0.01 µM, first compound 1 µM): 70.7%
viability, T/C (second compound 0.01 µM, first compound 3.16 µM): 60.5%
viability, T/C (second compound 0.01 µM, first compound 10 µM): 71.4%
viability, T/C (second compound 0.0316 µM, first compound 0.0316 µM): 70.1%
viability, T/C (second compound 0.0316 µM, first compound 0.1 µM): 79.2%
viability, T/C (second compound 0.0316 µM, first compound 0.316 µM): 87.5%
viability, T/C (second compound 0.0316 µM, first compound 1 µM): 56.7%
viability, T/C (second compound 0.0316 µM, first compound 3.16 µM): 67.1%
viability, T/C (second compound 0.0316 µM, first compound 10 µM): 54.6%
viability, T/C (second compound 0.1 µM, first compound 0.0316 µM): 56.5%
viability, T/C (second compound 0.1 µM, first compound 0.1 µM): 53.4%
viability, T/C (second compound 0.1 µM, first compound 0.316 µM): 65.9%
viability, T/C (second compound 0.1 µM, first compound 1 µM): 48.9%
viability, T/C (second compound 0.1 µM, first compound 3.16 µM): 61.6%
viability, T/C (second compound 0.1 µM, first compound 10 µM): 27.3%
viability, T/C (second compound 0.316 µM, first compound 0.0316 µM): 46.8%
viability, T/C (second compound 0.316 µM, first compound 0.1 µM): 61.8%
viability, T/C (second compound 0.316 µM, first compound 0.316 µM): 58%
viability, T/C (second compound 0.316 µM, first compound 1 µM): 53.5%
viability, T/C (second compound 0.316 µM, first compound 3.16 µM): 51%
viability, T/C (second compound 0.316 µM, first compound 10 µM): 32.8%
viability, T/C (second compound 1 µM, first compound 0.0316 µM): 32.4%
viability, T/C (second compound 1 µM, first compound 0.1 µM): 40.7%
viability, T/C (second compound 1 µM, first compound 0.316 µM): 44.9%
viability, T/C (second compound 1 µM, first compound 1 µM): 45.9%
viability, T/C (second compound 1 µM, first compound 3.16 µM): 41.4%
viability, T/C (second compound 1 µM, first compound 10 µM): 20.6%

IC50 (curve of compound): 5.42 µM and 7.46 µM
SMILES: Cn1nccc1Nc1nccc(-c2ccn(C(CO)c3ccc(Cl)c(F)c3)c(=O)c2)n1 (stereo unspecified)
viability, T/C (compound 0.0316 µM): 100% and 96.5%
viability, T/C (compound 0.1 µM): 68.5% and 79.2%
viability, T/C (compound 0.316 µM): 84.3% and 83.6%
viability, T/C (compound 1 µM): 110% and 86.8%
viability, T/C (compound 3.16 µM): 71.2% and 81.6%
viability, T/C (compound 10 µM): 26% and 39.2%

IC50 (curve of compound): < 0.0316 µM
SMILES: CC1(C)CCC(Nc2ncc(C(F)(F)F)c(-c3c[nH]c4c(P(C)(C)=O)c(C#N)ccc34)n2)CN1 (stereo unspecified)
viability, T/C (compound 0.0316 µM): 25.3% and 24.7%
viability, T/C (compound 0.1 µM): 25% and 26.2%
viability, T/C (compound 0.316 µM): 27.4% and 32.9%
viability, T/C (compound 1 µM): 30.6% and 31.8%
viability, T/C (compound 3.16 µM): 32.7% and 38.6%
viability, T/C (compound 10 µM): 0.65% and 1.29%
